From the supplement of paper PMC10307832

Columns and labels:
Assay in all cases: relative viability (nuclei count vs DMSO), 5 days (fraction); higher = more cells survive
[1] = compound: CC1=C(N=C(N=C1N)[C@H](CC(=O)N)NC[C@@H](C(=O)N)N)C(=O)N[C@@H]([C@H](C2=CN=CN2)OC3C(C(C(C(O3)CO)O)O)OC4C(C(C(C(O4)CO)O)OC(=O)N)O)C(=O)N[C@H](C)[C@H]([C@H](C)C(=O)N[C@@H]([C@@H](C)O)C(=O)NCCC5=NC(=CS5)C6=NC(=CS6)C(=O)NCCC[S+](C)C)O [Bleomycin] + CC1(C)CCC(c2ccc(Cl)cc2)=C(CN2CCN(c3ccc(C(=O)NS(=O)(=O)c4ccc(N[C@H](CCN5CCOCC5)CSc5ccccc5)c(S(=O)(=O)C(F)(F)F)c4)cc3)CC2)C1 [Navitoclax] (partner 0.5 µM); conditions: main component drawn
Outline: (§1)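 Each reported value is a median over duplicate plates. It expresses relative viability: treated-well nuclei count divided by vehicle-well nuclei count. Lung cancer cell lines in 1536-well plates were dosed by pin tool a day after seeding, alone with one drug or with a fixed anchor-drug dose plus five library-drug doses (not always all listed) in √10 steps, and nuclei were counted after 5 days.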

[2] = compound: CC1=C(N=C(N=C1N)[C@H](CC(=O)N)NC[C@@H](C(=O)N)N)C(=O)N[C@@H]([C@H](C2=CN=CN2)OC3C(C(C(C(O3)CO)O)O)OC4C(C(C(C(O4)CO)O)OC(=O)N)O)C(=O)N[C@H](C)[C@H]([C@H](C)C(=O)N[C@@H]([C@@H](C)O)C(=O)NCCC5=NC(=CS5)C6=NC(=CS6)C(=O)NCCC[S+](C)C)O [Bleomycin] + CS(=O)(=O)CCNCc1ccc(-c2ccc3ncnc(Nc4ccc(OCc5cccc(F)c5)c(Cl)c4)c3c2)o1 [Lapatinib] (partner 2 µM); conditions: main component drawn
Outline: as §1

[3] = compound: COc1cc([C@@H]2c3cc4c(cc3[C@@H](O[C@@H]3O[C@@H]5CO[C@@H](C)O[C@H]5[C@H](O)[C@H]3O)[C@H]3COC(=O)[C@H]23)OCO4)cc(OC)c1O [Etoposide] + CCNC(=O)c1noc(-c2cc(C(C)C)c(O)cc2O)c1-c1ccc(CN2CCOCC2)cc1 [Luminespib] (partner 0.01 µM)
Outline: as §1

[4] = compound: COc1cc([C@@H]2c3cc4c(cc3[C@@H](O[C@@H]3O[C@@H]5CO[C@@H](C)O[C@H]5[C@H](O)[C@H]3O)[C@H]3COC(=O)[C@H]23)OCO4)cc(OC)c1O [Etoposide] + Cc1nc(Nc2ncc(C(=O)Nc3c(C)cccc3Cl)s2)cc(N2CCN(CCO)CC2)n1 [Dasatinib] (partner 0.075 µM)
Outline: as §1

Row | Cell Line | relative viability ([1]; first compound 0.01 µM) | relative viability ([1]; first compound 0.03162 µM) | relative viability ([1]; first compound 0.1 µM) | relative viability ([1]; first compound 0.3162 µM) | relative viability ([1]; first compound 1 µM) | relative viability ([2]; first compound 0.01 µM) | relative viability ([2]; first compound 0.03162 µM) | relative viability ([2]; first compound 0.1 µM) | relative viability ([2]; first compound 0.3162 µM) | relative viability ([2]; first compound 1 µM) | relative viability ([3]; first compound 0.01 µM) | relative viability ([3]; first compound 0.03162 µM) | relative viability ([3]; first compound 0.1 µM) | relative viability ([3]; first compound 0.3162 µM) | relative viability ([3]; first compound 1 µM) | relative viability ([4]; first compound 0.01 µM) | relative viability ([4]; first compound 0.03162 µM) | relative viability ([4]; first compound 0.1 µM) | relative viability ([4]; first compound 0.3162 µM) | relative viability ([4]; first compound 1 µM)
1 | Calu-6 | 0.459 | 0.336 | 0.207 | 0.114 | 0.0817 | 0.729 | 0.614 | 0.456 | 0.168 | 0.174 |  |  |  |  |  |  |  |  |  | 
2 | EBC-1 | 0.392 | 0.527 | 0.379 | 0.274 | 0.269 | 0.217 | 0.215 | 0.199 | 0.206 | 0.196 |  |  |  |  |  |  |  |  |  | 
3 | A-427 | 0.844 | 0.888 | 0.991 | 0.787 | 0.27 | 0.797 | 0.874 | 0.776 | 0.369 | 0.169 | 0.832 | 1.02 | 0.61 | 0.382 | 0.182 | 0.702 | 0.818 | 0.435 | 0.446 | 0.2
4 | NCI-H2405 | 0.559 | 0.714 | 0.499 | 0.196 | 0.199 | 0.836 | 1.01 | 0.889 | 0.357 | 0.262 | 0.646 | 0.65 | 0.949 | 0.664 | 0.301 | 0.219 | 0.23 | 0.239 | 0.197 | 0.199
5 | NCI-H1355 | 1.01 | 0.947 | 0.913 | 0.565 | 0.328 | 0.901 | 1.15 | 0.837 | 0.337 | 0.257 | 0.635 | 0.765 | 0.403 | 0.338 | 0.201 | 0.673 | 0.692 | 0.376 | 0.622 | 0.251
6 | NCI-H358 |  |  |  |  |  | 0.381 | 0.466 | 0.354 | 0.256 | 0.254 | 0.243 | 0.327 | 0.209 | 0.179 | 0.095 | 0.166 | 0.179 | 0.112 | 0.149 | 0.106
7 | RERF-LC-KJ | 0.54 | 0.5 | 0.439 | 0.227 | 0.192 | 0.72 | 0.702 | 0.59 | 0.354 | 0.254 | 1.16 | 1.2 | 1.29 | 0.93 | 0.724 | 0.602 | 0.899 | 0.707 | 0.73 | 0.494
8 | NCI-H23 | 0.47 | 0.284 | 0.276 | 0.155 | 0.181 | 0.419 | 0.314 | 0.268 | 0.197 | 0.165 | 0.23 | 0.204 | 0.207 | 0.212 | 0.246 | 0.805 | 0.821 | 0.504 | 0.384 | 0.185
